Measured values published in patent US12624057B2, “Bisphosphonate quinolone conjugates and uses thereof” (BIOVINC, LLC, priority 2016, dated 2026).
“Also recorded” adds a separate entry of the source. Where two headings read alike, the source gives them in different places.

Tests used:
[1] = test system: Aggregatibacter actinomycetemcomitans biofilms on titanium implants; test: Rat jawbone peri-implant osteomyelitis model, first animal experiment; type: in vivo, Sprague-Dawley rats; conditions: for activity compared with ciprofloxacin in multiple doses (in words): conjugate 10 mg/kg single dose versus ciprofloxacin 30 mg/kg total; for efficacy (in words): single dose 0.1 and 1 mg/kg
From the text: Since this BP-ciprofloxacin conjugate is novel and has not been tested in vivo, we performed an initial safety and efficacy study in an animal model of peri-implant osteomyelitis. This model is a unique in-house jawbone peri-implant osteomyelitis model that was developed specifically for translational value to study biofilm-mediated disease and host response in vivo (Freire, et al, Development of animal model for Aggregatibacter actinomycetemcomitans biofilm-mediated oral osteolytic infection: a preliminary study. J Periodontol 2011; 82:778-89). […] After biofilms are established on the implants in vitro, they are surgically transferred to the jawbone of each rat. Animals are anesthetized, the cheeks are retracted and a transmucosal osteotomy is performed so implants can be manually inserted into the osteotomy and secured. Two biofilm-inoculated implants are placed in each rat (n=12 rats and 24 implants) in the palatal bone bilaterally.
To determine appropriate dosing concentrations, we calculated approximate initial doses for the conjugate based on previous studies and pharmacokinetic data using similar target and release strategies and also rodents (Houghton, et al., Linking bisphosphonates to the free amino groups in fluoroquinolones: preparation of osteotropic prodrugs for the prevention of osteomyelitis. J Med Chem 2008; 51:6955-69; Morioka, et al., Design, synthesis, and biological evaluation of novel estradiol-bisphosphonate conjugates as bone-specific estrogens. Bioorg Med Chem 2010; 18:1143-8). We expected that increasing doses of 0.1, 1 and 10 mg/kg BP-ciprofloxacin molar equivalents will allow us to determine antimicrobial activity in 2 test animals per group based on sample size estimations and previous experience with the animal model (Freire, et al, Development of animal model for Aggregatibacter actinomycetemcomitans biofilm-mediated oral osteolytic infection: a preliminary study. J Periodontol 2011; 82:778-89). Animals were dosed via intraperitoneal injection under general anesthesia, and all compounds were constituted in sterile physiological injectable saline at appropriate pH. One week after pharmacotherapy, all animals were sacrificed and resection of peri-implant tissues was performed, and tissues were immediately homogenized and processed for quantitative assessment of microbial load. Animals were monitored throughout the study period for local or systemic adverse effects of pharmacotherapy.
This animal model is an in-house jawbone peri-implant osteomyelitis model designed specifically to study biofilm-mediated disease and host response in vivo (Freire, et al, Development of animal model for Aggregatibacter actinomycetemcomitans biofilm-mediated oral osteolytic infection: a preliminary study. J Periodontol 2011; 82:778-89). […] After biofilms were established on the implants in vitro, they were surgically transferred to the jawbone of each rat. For surgery, animals were anesthetized with 4% isoflurane inhalant initially followed by intraperitoneal injection of ketamine (80-90 mg/kg) plus xylazine (5-10 mg/kg). Then local anesthesia was given via infiltration injection of bupivicaine 0.25% at the surgical site. Buprenorphine sustained release (1.0-1.2 mg/kg) was then given subcutaneously as preemptive analgesia before making initial incisions. Once anesthetized, the buccal mucosa of each rat was retracted and a transmucosal osteotomy was performed with a pilot drill into the alveolar ridge in the natural diastema of the anterior palate. Implants were then manually inserted into the osteotomy and secured into the bone until the platform is at mucosal level.

[2] = test system: biofilms of S. aureus strain ATCC-6538; test: Preformed biofilms on HA discs, S. aureus; type: cell-based, Staphylococcus aureus; conditions: for bactericidal activity / reduction of CFUs against established biofilm (in words): HA as substrate
Procedure: (§1) Antimicrobial susceptibility testing of BP-ciprofloxacin against preformed biofilms of S. aureus strain ATCC-6538 and P. aeruginosa strain ATCC-15442: Strains cultured on appropriate agar plates (Columbia agar plate for S. aureus; MacConkey agar plate for P. aeruginosa) were transferred to liquid microbiological media and incubated for 24 h/37° C. under aerobic conditions. After incubation, strains were diluted to the density of 1 MF. The microbial dilutions were introduced to wells of 24-well plates containing HA discs as a substrate, or simply to polystyrene wells where the bottom surface of the wells served as the substrate for biofilm development. Strains were incubated at 37° C. for 4 hrs. Next, the microbe-containing solutions were removed from the wells. The surfaces, HA discs and polystyrene plates, were gently rinsed to leave adhered cells and to remove planktonic or loosely-bound microbes. Surfaces prepared in this manner were immersed in fresh TSB medium containing 0.24-125 mg/L of BP-ciprofloxacin conjugate. After 24 hrs of incubation at 37° C. the surfaces were rinsed using physiological saline solution and transferred to 1 mL of 0.5% saponin (Sigma-Aldrich, St Louis, MO). The surfaces were vortex-mixed vigorously for 1 minute to detach cells. Subsequently, all microbial suspensions were diluted 10 to 10^9 times. Each dilution ([…]) was cultured on the appropriate stable medium (MacConkey, Columbia for P. aeruginosa and S. aureus, respectively) and incubated at 37-C for 24 hours. After this time, the microbial colonies were counted and the number of cells forming biofilm was assessed. Results were presented as the mean number of CFU per square millimeter surface±standard error of the mean. To estimate the exact surface area of HA discs, x-ray tomographic analysis was applied. For estimation of the area of test plate bottoms, the equation for circle area: πr2 was applied.
(§2) Antimicrobial susceptibility testing of 6 against preformed biofilms of S. aureus strain ATCC-6538 and P. aeruginosa strain ATCC-15442: Strains cultured on appropriate agar plates (Columbia agar plate for S. aureus; MacConkey agar plate for P. aeruginosa) were transferred to liquid microbiological media and incubated for 24 hrs/37° C. under aerobic conditions. After incubation, strains were diluted to the density of 1 MF. The microbial dilutions were introduced to wells of 24-well plates containing HA discs as a substrate, or simply to polystyrene wells where the bottom surface of the wells served as the substrate for biofilm development. Strains were incubated at 37° C. for 4 hrs. Next, the microbe-containing solutions were removed from the wells. The surfaces, HA discs and polystyrene plates, were gently rinsed to leave adhered cells and to remove planktonic or loosely-bound microbes. […] After 24 hrs of incubation at 37° C. the surfaces were rinsed using physiological saline solution and transferred to 1 mL of 0.5% saponin (Sigma-Aldrich, St Louis, MO). The surfaces were vortex-mixed vigorously for 1 minute to detach cells. Subsequently, all microbial suspensions were diluted 10-1 to 10-9 times. Each dilution ([…]) was cultured on the appropriate stable medium (MacConkey, Columbia for P. aeruginosa and S. aureus, respectively) and incubated at 37° C. for 24 hrs. After this time, the microbial colonies were counted and the number of cells forming biofilm was assessed. Results were presented as the mean number of CFU per square millimeter surface±standard error of the mean. To calculate the surface area of HA discs, x-ray tomographic analysis was applied. For estimation of the area of test plate bottoms, the equation for circle area: πr^2 was applied.

[3] = test system: biofilms of P. aeruginosa strain ATCC-15442; test: Preformed biofilms on HA discs, P. aeruginosa; type: cell-based, Pseudomonas aeruginosa
Procedure: as §1
as §2, with “To calculate the surface area of HA discs, x-ray tomographic analysis was applied. For estimation of the area of test plate bottoms, the equation for circle area: πr^2 was applied.” left out

[4] = conjugate, single dose 10 mg/kg intraperitoneal
[5] = HA discs as substrate (Example 1)
[6] = HA discs as substrate (Example 5)
[7] = ciprofloxacin, 10 mg/kg 3×/week (30 mg/kg total)

## O=C(O)c1cn(C2CC2)c2cc(N3CCN(C(=O)Oc4ccc(CC(P(=O)(O)O)P(=O)(O)O)cc4)CC3)c(F)cc2c1=O [Compound 6, 1-cyclopropyl-7-(4-((4-(2,2-diphosphonoethyl)phenoxy)carbonyl)piperazin-1-yl)-6-fluoro-4-oxo-1,4-dihydroquinoline-3-carboxylic acid]
[1]; conjugate 10 mg/kg single dose
  greater bactericidal activity than multiple dosing of ciprofloxacin: ~1 log
[1]
  activity compared with ciprofloxacin in multiple doses (in words): nearly an order of magnitude greater activity than ciprofloxacin alone
[1]; listed as BCC
  activity compared with ciprofloxacin in multiple doses (in words): an order of magnitude greater activity than the parent antibiotic ciprofloxacin alone; also recorded: approximately as effective as ciprofloxacin given at 30 mg/kg total dose
[1]; listed as BP-ciprofloxacin
  activity compared with ciprofloxacin in multiple doses (in words): more than an order of magnitude greater activity than ciprofloxacin alone; also recorded: superior to multiple dosing of the parent antibiotic ciprofloxacin
[1]; [4]
  bacterial killing / bactericidal activity: 99%
  reduction of bacterial load versus negative control: 2 log
[1]; conjugate
  efficacy (in words): little effect; also recorded: no efficacy; also recorded: ineffective
[1]; conjugate, listed as BP-ciprofloxacin
  efficacy (in words): little effect; also recorded: not efficacious
[2]
  bactericidal activity / reduction of CFUs against established biofilm (in words): statistically significant (p<0.05, Kruskal-Wallis test) bactericidal activity
[2]; listed as BP-ciprofloxacin
  bactericidal activity / reduction of CFUs against established biofilm (in words): statistically significant bactericidal activity
[2]; listed as conjugate
  bactericidal activity / reduction of CFUs against established biofilm (in words): statistically significant bactericidal activity and reduction of colony forming units
[2]; [5]
  MBIC50: 8 µg/mL
  MBIC90: 50 µg/mL
[2]; [6]
  MBIC50: 16 µg/mL
  MBIC90: 100 µg/mL
[3]; acidic and basic conditions (Example 1)
  concentration at which bactericidal: 50 µg/mL
[3]; acidic and physiological conditions (Example 5)
  concentration at which bactericidal: 50 µg/mL
[3]; listed as conjugate
  activity against P. aeruginosa biofilm (in words): improved bactericidal activity in basic conditions; also recorded: improved bactericidal activity in physiological conditions
[3]; physiological pH, also effective at acidic pH
  concentration at which most effective: 8 µg/mL

## O=C(O)c1cn(C2CC2)c2cc(N3CCNCC3)c(F)cc2c1=O [ciprofloxacin, reference compound]
[1]; [7]
  bacterial killing: 90%
  reduction of bacterial load: 1 log
[2]
  bactericidal activity / reduction of CFUs against established biofilm (in words): statistically significant bactericidal activity
[2]; [5]
  MBIC90: 8 µg/mL
[2]; [6]
  MBIC90: 8 µg/mL
[3]
  activity against P. aeruginosa biofilm (in words): no inhibitory or bactericidal activity; also recorded: inactive under either acidic or physiological conditions
